Experimental data reported in US20180051301A1, “INDUCTION OF PACEMAKER-LIKE CELLS FROM CARDIOMYOCYTES” (WASHINGTON UNIVERSITY, priority 2015, published 2018).

How the values were obtained:
Type in all cases: cell-based
[1] = system: human ventricular slices (α1-adrenergic receptor stimulation); test: Chronic drug model: acute versus chronic phenylephrine in cultured human ventricular slices, optical mapping; details: for effect on AP duration (APD): 1 Hz (60 BPM) pacing
Method: Non-failing donor hearts that were rejected for transplantation were cardioplegically arrested and cooled in the operating room following the same procedure accepted for heart transplantation. Cardiac tissue that was promptly delivered to the research laboratory, where it was sliced tangential to the endocardium using a high precision (1 μm) vibrating microtome, transferred to a custom-designed incubation apparatus, and cultured at a liquid-air interface in 6-well culture plates using Transwell inserts. Slices were cultured in M-199 supplemented with 1×ITS (Insulin, Transferrin, Selenium), 10 mM 2,3-butanedione monoxime, and 2% penicillin-streptomycin in a 37° C. incubator with humidified air with 5% CO2. Culture medium was changed daily. Vital tissue slices from adult myocardium prepared in this manner have previously been cultured for up to 28 days with high cellular viability and maintenance of expression of the major ion channels and action potential characteristics.
Slices were cultured in medium 199 supplemented with 2% penicillin-streptomycin, 1×ITS (Insulin, Transferrin, Selenium) liquid media supplement, and 10 mM 2,3-butanedione monoxime. Slices were individually washed in sterile PBS solution 6 times before placing in culture. Sterile forceps were used to handle slices at all time. […]
After a 24 hour culture period, slices' electrophysiology was measured with optical mapping to examine potential functional changes occurred during culture. […]
Utilizing cultured slices and adult dosage of phenylephrine, a widely used selective α1-adrenergic receptor agonist, a model to study chronic drug effects in human cardiac slices was developed. Slice electrophysiology was first acutely measured using optical mapping after application of 3 μM phenylephrine. […]
Slices were cultured in a tissue incubator for 24 hours. Control cultured slices were measured before and after phenylephrine application similar to acute slices, slices cultured in drug media were measured separately. […] Only transverse conduction velocity could be measured accurately due to the small size of the tissue.
(§1) Activation map was plotted via calculating activation time points at 50% of action potential upstroke amplitude. Action potential and calcium transient duration was calculated at 80% repolarization/relaxation. When slices were field-paced, conduction velocity could not be quantified via traditional longitudinal and transverse direction. During point pacing conduction velocity was calculated using a semi-automated Matlab function ORCA. Effective refractory period was measured using S1-S1 pacing protocol until 1:1 capture was lost. Action potential and calcium transient were recorded at cycle lengths from 2000 ms to 200 ms.

[2] = system: Donor left ventricular slices; test: Optical mapping of acute drug response in donor human left ventricular slices; details: donor left ventricular slices paced at 1 Hz; β-adrenergic stimulation with isoproterenol (100 nM); ±S.D.; baseline 0.67±0.03
Method: After arrival, an approximately one-inch cube of left ventricular tissue or right atrial tissue was cut in cardioplegic solution. Left ventricular tissue was taken from a region close to left anterior descending artery and circumflex artery. Atrial tissue was taken from crista terminalis below sinoatrial node region. Premade 4% agarose gel cooled at 4° C. was glued on to the tissue holder of a high precision vibrating microtome (7000 smz-2, Campden Instruments Ltd. UK). The tissue block was then mounted endocardium up on the agarose. […] Slices were cut tangential to the endocardium. […]
(§2) Ventricular slices were electrophysiologically studied with optical mapping technique. […] Transmembrane potential (Vm) was measured using di4-ANEEPS and RH237 (Life Technologies). Intracellular calcium was measured using Rhod-2AM (Life Technologies). […]
as §1, with “Action potential and calcium transient were recorded at cycle lengths from 2000 ms to 200 ms.” left out

[3] = system: failing slices (left ventricular free wall of failing hearts); test: Optical mapping of acute drug response in failing human heart slices; details: isoproterenol, baseline 0.47±0.008
Method: Adult human hearts were procured either as failing human hearts from Barnes-Jewish Hospital or donor human hearts from Mid-America transplant services. Explanted hearts were cardioplegically arrested via high potassium solution (in mmol/L: NaCl 110, CaCl2 1.2, KCl 16, MgCl2 16, NaHCO3 10) and were cooled to approximately 4° C. in the operating room following aortic cross-clamp. Failing hearts were perfused through both coronaries, while donor hearts were perfused systemically prior to removal from body. The heart was maintained at this low temperature to preserve tissue during the 15-20 minute transportation time from the operating room to the research laboratory.
as §2
as §1, with “Effective refractory period was measured using S1-S1 pacing protocol until 1:1 capture was lost. Action potential and calcium transient were recorded at cycle lengths from 2000 ms to 200 ms.” left out

Structure (SMILES) | effect on AP restitution curve ([1]; acute (15 minutes) 3 μM, at baseline as well as after one day in culture) | effect on AP duration (APD) ([1]; acute treatment at baseline and after one day in culture) | effect on AP restitution curve ([1]; chronic (24 hours) 3 μM) | effect on AP duration (APD) ([1]; chronic treatment (24 hours)) | conduction velocity (CV) [2] [m/s] | conduction velocity (CV) [3] [m/s]
CNC[C@H](O)c1cccc(O)c1 [phenylephrine] | shifted the AP restitution curve upwards significantly | APD lengthening | shifted the AP restitution curve downwards | APD shortening |  | 
CC(C)NCC(O)c1ccc(O)c(O)c1 (stereo not drawn) [isoproterenol] |  |  |  |  | 0.84±0.03 | 0.54±0.006
